Peptide text beside a SMILES is read from it.
Assays:
A375 cells [1] = test: Annexin V/PI flow cytometry apoptosis, A375; format: cell-based; conditions: 0, 50, 100, 200 μM, 48 h
Protocol: In this study, cell apoptosis was analyzed by flow cytometry using a PI/FITC-Annexin V Apoptosis Detection Kit (4A Biotech, Beijing, China). Briefly, melanoma cells were collected and washed with pre-chilled PBS, then resuspended with Annexin V staining buffer. Afterward, fluorescein isothiocyanate (FITC)-Annexin V and PI were stained for 5 min at RT, and then immediately detected using a Beckman flow cytometer. To investigate immune cell infiltration of the lung and spleen in the pulmonary metastasis mouse model, the surface and nuclear antigen staining were performed following the experimental procedure. Fluorescence-labeled mAb against CD3, CD25, CD49b, GranzymeB, CD11b, CD86, and CD206 were purchased from BioLegend (BioLegend, San Diego, CA), and CD4, CD8, and Foxp3 from Tonbo. […] Finally, the samples were measured using flow cytometry.
Fig. 3 Biopanning of PDPN antagonist peptides. […] B Immunofluorescence staining was performed to quantify the colocalization of CY12-RP2 and PDPN protein in melanoma cell lines (A375, A875). […] D Suppression efficiency of melanoma cells growth by CY12-RP2 was measured by CCK8 assay at various concentrations for 24, 48 or 72 h, respectively. […] G, H The 3D cellular spheres were treated with the set concentrations of CY12-RP2 for 5 days and cell morphology was assessed (G), relative spheroid diameter was measured (H). […]

A375 cells [2] = test: Transwell matrigel invasion, A375; format: cell-based; conditions: transwell matrigel, 0, 5, 25 μM, 48 h
Protocol: For invasion assay, matrigel (Corning, New York, USA) was coated on the upper surface of the upper chamber. The upper chamber was filled with DMEM medium containing 2% FBS, while the lower chamber contained a medium supplemented with 20% FBS. In brief, melanoma cells (A375 GFP, A875 GFP, A375 PDPN^−/−, and A875 PDPN^+/+ cells) were seeded in the upper chamber of the transwell plate (Corning, New York, USA) at about 5 × 10^4 cells/well with the medium as described above. For peptide functionality experiments, A375 and A875 cells were seeded in the upper chamber of the transwell plate at a density of 5 × 10^4 cells/well with various peptide concentrations (0 μM, 5 μM, 25 μM). Transwell inserts were fixed using 4% paraformaldehyde after 48 h cell invasion, and crystalline violet was used for staining. The quantities of invading cells were quantified using ImageJ software (NIH).

PBMC = PBMC cytokines by ELISA; format: cell-based, healthy donor; conditions: 50 µM, 48 h
Protocol: PBMCs (Shenzhen People's Hospital. Shenzhen, China)) from a healthy donor were isolated using a density gradient centrifugation procedure. Firstly, the immune cell proportions analysis of PBMCs was measured using flow cytometry. We then investigated the effect of CY12-RP2 on the cytokines in PBMCs using ELISA assays. Briefly, PBMCs (5 × 10^5 cells/well) were cultured in 24-well plates with RPMI1640 containing 10% FBS for 24 h, and the cells were stimulated with CY12-RP2 (50 µM) for 48 h. Afterward, supernatants were collected for subsequent assays. […] The experimental results were then observed by crystal violet staining after 48 h. The levels of major inflammatory cytokines, including TNF-α, IL-1β, IL-2, TGF-β, IFN-γ, and IL-10, were measured using an ELISA kit (Shenzhen Ziker Biological Technology, Shenzen, China). Briefly, culture supernatants of cells and serum of pulmonary metastasis mouse model were respectively collected and added to an antibody pre-coated 96-well plates, and then followed up according to the manufacturer's instructions.

[3] = test system: 3D melanoma spheroid (A375); test: 3D melanoma spheroid / PBMC co-culture; format: cell-based; conditions: 0, 2, 10, 50 μM, with increasing concentrations
Protocol: Prepared melanoma cells spheroids were plated in 48-well plates. Following incubation for 3 days, the spheroids were exposed to different concentrations (0, 50, 100 and 200 μM) of CY12-RP2, and changes in spheroid diameter were detected after 5 days of treatment. Additionally, melanoma cell spheroids were treated with various concentrations of CY12-RP2 as described previously, and after 72 h, the spheroids were stained for immunofluorescence with caspase 3 primary antibody. The specific experimental procedures refer to the following immunofluorescence analysis. Additionally, we co-cultured peptide-stimulated PBMC with spheroids to determine the tumor-killing ability of activated PBMC.
Fig. 6 Influence of CY12-RP2 on the immune-mediated anti-tumor capacity of PBMC in vitro and in vivo. A The procedure of PBMC isolation from donor peripheral blood, and the ratio of different immune cells in PBMC was assayed by flow cytometry. B PBMCs were stimulated with CY12-RP2 for 48 h, and the cytokine levels in the supernatant were assayed by ELISA. […] E Brightfield and fluorescent microscopy images of A375 cells (red) co-culture with PBMC (GFP) were stimulated with various concentrations (0, 2, 10, 50 μM) of CY12-RP2. Data are presented as mean ± SD. *p < 0.05, **p < 0.01, ***p < 0.001 versus control

CC(C)C[C@H](NC(=O)[C@H](Cc1ccc(O)cc1)NC(=O)[C@@H](N)[C@@H](C)O)C(=O)N[C@@H](CS)C(=O)N[C@H](C(=O)N[C@@H](C)C(=O)N[C@@H](CS)C(=O)N[C@@H](CC(=O)O)C(=O)N[C@@H](Cc1ccc(O)cc1)C(=O)N[C@H](C(=O)N[C@@H](Cc1c[nH]cn1)C(=O)N[C@@H](Cc1c[nH]cn1)C(=O)O)[C@@H](C)O)[C@@H](C)O [CY12-RP2] (H-TYLCTACDYTHH-OH; N-terminus and C-terminus assumed)
apoptosis rate (A375 cells [1]): significantly up-regulated by CY12-RP2 in a dose-dependent manner | invasion (A375 cells [2]): significantly suppressed the invasion of A375 cells in a dose-dependent manner | IFN-γ level in PBMC supernatant (PBMC): increased | IL-1β level in PBMC supernatant (PBMC): increased | IL-10 level in PBMC supernatant (PBMC): decreased | TGF-β level in PBMC supernatant (PBMC): decreased | TNF-α level in PBMC supernatant (PBMC): increased | tumor-killing capacity of PBMC [3]: increased
